Reference: patent US20260226417A1, “METHOD FOR INHIBITING AGING OF STEM CELLS” (ENCELL CO., LTD, priority 2023, published 2026)

Key:
[1] = test system: replicative senescence model of human umbilical cord-derived mesenchymal stem cells (P18); experiment: β-galactosidase staining, extent of senescence, replicative senescence model (P18); assay type: cell-based; design: dose or concentration left out as unconfirmed
Procedure: Compared to the control cells (P5) in which the extent of senescence was 0.21 % of the total, the extent of senescence in the senescence-induced mesenchymal stem cells (P18) was increased to 42.44% of the total, confirming the progression of replicative senescence (FIGs. 1a and 1b). Specifically, individual cells (5×10^4/well) were suspended in a 6-well plate and stabilized for 24 hours, followed by adding β-galactosidase staining solution and staining for 24 hours, after which the extent of senescence was measured under a microscope.
Therefore, it was confirmed that this concentration was an optimal concentration that inhibited the extent of senescence by inducing apoptosis specifically in the replicative senescence model (P18) without affecting the cytotoxicity of the control cells (P5).

[2] = test system: SASP (senescence-associated secretory phenotype) markers MMP3, IGFBP5, IGFBP7; experiment: qRT-PCR of SASP markers in replicative senescence model (P18); assay type: cell-based, human; settings: 160 μM, 3 days
Procedure: Additionally, there is a report in which the gene expression of SASP (senescence-associated secretory phenotype) is increased in senescent cells, so the expression of MMP3, IGFBP5, and IGFBP7 was assessed at the mRNA level through qRT-PCR.
Specifically, qRT-PCR performed in this example is as follows: after treating the replicative senescence model (P18) with nervonic acid for 3 days, total RNA was extracted using Trizol (Invitrogen, MA, USA) according to the method provided by the vendor. After quantifying the extracted total RNA, random hexamer and dNTP were added, and PCR was performed at 65° C. for 5 minutes. 5× SSIV buffer, 100 mM DTT, RNAse OUT, and Superscript IV RT were added and reverse transcription was performed to synthesize cDNA, and then qRT-PCR was performed to measure gene expression, and the expression levels were compared through 2^−ΔΔCt analysis.

[3] = test system: replicative senescence model of human umbilical cord-derived mesenchymal stem cells (P18); experiment: Cell size measurement, replicative senescence model (P18); assay type: cell-based; settings: 160 μM, 3 days
Procedure: Example 4. Validation of gut microbiota-derived metabolite candidate for senescence control Control cells (P5) and replicative senescence-induced human umbilical cord-derived mesenchymal stem cells (P18) were treated with nervonic acid (160 μM) to analyze the effects of the gut microbiota-derived metabolite having the ability to control senescence of stem cells on the proliferation of stem cells and cell size.
In addition, since cells have the characteristic of undergoing hypertrophy during the progression of cellular senescence, cell sizes were compared.

CCCCCCCC/C=C\CCCCCCCCCCCCCC(=O)O [nervonic acid]
extent of senescence (β-galactosidase staining), fold decrease compared to before treatment [1]: 0.41±0.04 fold | IGFBP5 mRNA expression, fold compared to before treatment [2]: 0.62±0.03 fold | IGFBP7 mRNA expression, fold compared to before treatment [2]: 0.77±0.03 fold | MMP3 mRNA expression, fold compared to before treatment [2]: 0.76±0.04 fold | cell size, fold decrease compared to before treatment [3]: 0.47±0.03 fold
